# Assay results: ChEMBL document CHEMBL3792283, “Biphenyl-4-yl-acrylohydroxamic acids: Identification of a novel indolyl-substituted HDAC inhibitor with antitumor activity” (Eur J Med Chem, 2016)
# Calls of active or inactive are those of the source. The rule behind the calls is not given here.
# Key:
# [1] = Antiproliferative activity human HCT116 cells assessed as reduction in cell number after 72 hrs by cell counter analysis; type: functional, cell-based; conditions: HCT-116, 72 h
# [2] = Antiproliferative activity against human H460 cells assessed as reduction in cell number after 72 hrs by cell counter analysis; type: functional, cell-based; conditions: NCI-H460, 72 h
# HT-29 [3] = experiment: Antiproliferative activity against human HT-29 cells assessed as reduction in cell number after 72 hrs by cell counter analysis; type: functional, cell-based; conditions: HT-29, 72 h
# [4] = Cell cycle arrest in human IGROV1 cells assessed as accumulation at G1 phase at 0.3 to 1 uM after 72 hrs by propidium iodide staining based flow cytometry; type: functional; conditions: IGROV-1
# [5] = Antiproliferative activity against human IGROV1 cells assessed as reduction in cell number after 72 hrs by cell counter analysis; type: functional, cell-based; conditions: IGROV-1, 72 h
# IGROV-1 [6] = experiment: Induction of apoptosis in human IGROV1 cells at 0.3 uM after 72 hrs by TUNEL assay (reference value: 3%); type: functional
# HT-29 [7] = experiment: Antiproliferative activity against mitoxantrone resistant human HT-29 cells assessed as reduction in cell number after 72 hrs by cell counter analysis; type: functional, cell-based; conditions: HT-29, 72 h
# animal or person = type: functional; conditions: Homo sapiens, HCT-116, po, read-out: TGI
# Description: Antitumor activity against human HCT116 cells xenografted in athymic Swiss nude mouse assessed as tumor growth inhibition at 175 mg/kg, po for 5 days a week for 4 weeks relative to control
# IGROV-1 [8] = experiment: Induction of apoptosis in human IGROV1 cells at 1 uM after 72 hrs by TUNEL assay (reference value: 3%); type: functional
# [9] = Antiproliferative activity against human LoVo/DX cells assessed as reduction in cell number after 72 hrs by cell counter analysis; type: functional, cell-based
# LoVo = experiment: Antiproliferative activity against human LoVo cells assessed as reduction in cell number after 72 hrs by cell counter analysis; type: functional, cell-based
# Histone deacetylase 2 = Histone deacetylase 2 (Homo sapiens, UniProt Q92769); experiment: Inhibition of human recombinant HDAC2 using Fluor de Lys Green as substrate incubated for 30 mins by fluorescence assay
# Histone deacetylase [10] = experiment: Inhibition of HDAC in human HeLa nuclear extract using BOC-Ac-Lys-AMC as substrate incubated for 90 mins by fluorescence assay; type: protein assay
# Histone deacetylase [11] = experiment: Inhibition of HDAC in human HeLa cells using BOC-Ac-Lys-AMC as substrate incubated for 4 hrs by fluorescence assay; type: cell-based
# Sequence of Histone deacetylase 2 (Q92769 whole entry): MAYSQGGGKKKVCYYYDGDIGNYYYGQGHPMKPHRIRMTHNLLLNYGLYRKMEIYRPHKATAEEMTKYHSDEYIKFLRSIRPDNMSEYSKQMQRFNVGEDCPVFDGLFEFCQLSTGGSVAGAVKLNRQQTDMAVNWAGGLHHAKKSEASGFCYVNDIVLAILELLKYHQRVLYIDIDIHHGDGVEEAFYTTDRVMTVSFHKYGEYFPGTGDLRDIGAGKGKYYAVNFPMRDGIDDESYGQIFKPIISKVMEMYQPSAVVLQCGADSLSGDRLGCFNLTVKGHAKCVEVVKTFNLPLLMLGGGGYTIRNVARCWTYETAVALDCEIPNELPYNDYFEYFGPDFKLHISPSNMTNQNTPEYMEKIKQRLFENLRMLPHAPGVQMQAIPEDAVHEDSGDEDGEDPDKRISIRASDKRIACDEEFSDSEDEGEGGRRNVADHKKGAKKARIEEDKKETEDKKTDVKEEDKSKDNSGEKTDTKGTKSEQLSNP
IC50 (Histone deacetylase 2),IC50 (Histone deacetylase [10]),IC50 (Histone deacetylase [11]),Structure (SMILES),IC50 [1],IC50 [2],IC50 (HT-29 [3]),Activity [4],IC50 [5],Activity (IGROV-1 [6]),IC50 (HT-29 [7]),inhibition in vivo at 175 mg/kg (animal or person),Activity (IGROV-1 [8]),IC50 [9],IC50 (LoVo)
–,–,–,Cc1[nH]c2ccccc2c1/C=C/c1ccccc1-c1ccc(/C=C/C(=O)NO)cc1,270 nM,1410 nM,1370 nM,Active,350 nM,34%,2440 nM,68%,79%,4620 nM,6570 nM
11800 nM,2600 nM,2500 nM,CC(C)=C(c1ccccc1)c1ccc(/C=C/C(=O)NO)cc1,2000 nM,5500 nM,4120 nM,–,2500 nM,–,–,–,–,–,2790 nM
–,–,–,O=C(CCCCCCC(=O)Nc1ccccc1)NO [VORINOSTAT],310 nM,–,–,–,2200 nM,–,–,–,–,–,–
–,–,–,COc1ccc(-c2ccc(/C=C/C(=O)NO)cc2)cc1,260 nM,3700 nM,1580 nM,–,750 nM,–,1730 nM,–,–,–,–
